In publication PMC12040169 (PLOS Biology, 2025):

experiment: in vitro; conditions: human, hela cells, % viability

Row | Compound | viability at 28.5 h, 10 µM [%]
1 | CCC(CC)C(=O)N1CC[C@H]2NC(=O)N(Cc3ccccc3)C(=O)[C@H]21 [CBK289291] | 88.7
2 | COc1ccc(C(=O)N2CC[C@H]3NC(=O)N(Cc4ccccc4)C(=O)[C@H]32)cc1 [CBK289293] | 94.1
3 | CC(C)(C)c1ccc(C(=O)N2CC[C@H]3NC(=O)N(Cc4ccccc4)C(=O)[C@H]32)cc1 [CBK289294] | 86
4 | COc1ccc(-c2c[nH]c([C@@H]3COCCN3Cc3ccccc3O)n2)cc1 [CBK289296] | 85.1
5 | CS(=O)(=O)c1ccc(-c2c[nH]c([C@@H]3COCCN3C3CCCCC3)n2)cc1 [CBK289299] | 102
6 | CC(C)N1CCOC[C@H]1c1nc(-c2ccc(S(C)(=O)=O)cc2)c[nH]1 [CBK289301] | 91.2
7 | COc1ccc(-c2c[nH]c([C@@H]3COCCN3Cc3ccc(C(=O)O)cc3)n2)cc1 [CBK289305] | 84.1
8 | CS(=O)(=O)c1ccc(-c2c[nH]c([C@@H]3COCCN3Cc3ccc(C(=O)O)cc3)n2)cc1 [CBK289306] | 97.3
9 | CN(C)Cc1cc(C[C@@H]2C[C@H](NS(=O)(=O)c3ccccc3)C2(C)C)no1 [CBK289307] | 112
10 | Cc1ccc(-c2c[nH]c([C@@H]3COCCN3Cc3c[nH]c4ccccc34)n2)cc1 [CBK289308] | 106
11 | CN(C)Cc1cc(C[C@@H]2C[C@H](NCc3ccccn3)C2(C)C)no1 [CBK289313] | 92.3
12 | Cc1ccc(-c2c[nH]c([C@@H]3COCCN3Cc3c[nH]cn3)n2)cc1 [CBK289315] | 94.8
13 | O=C(O)c1ccc(CN2CCOC[C@H]2c2nc(-c3ccc(C(F)(F)F)cc3)c[nH]2)cc1 [CBK289317] | 115
14 | O=C(Nc1ccc([C@@H](O)[C@H]2COCC(=O)N2Cc2cccnc2)cc1)c1ccccc1 [CBK289319] | 111
15 | CS(=O)(=O)c1ccc(-c2c[nH]c([C@@H]3COCCN3Cc3c[nH]c4ccccc34)n2)cc1 [CBK289321] | 92
16 | Cn1cc(CN2CCOC[C@H]2c2nc(C(C)(C)C)c[nH]2)c2ccccc21 [CBK289322] | 118
17 | COc1ccc(C(=O)N2CC[C@H]3NC(=O)N(c4ccc(F)cc4)C(=O)[C@H]32)cc1 [CBK289325] | 86.9
18 | O=C1N[C@@H]2CCN(S(=O)(=O)c3cccs3)[C@@H]2C(=O)N1c1ccc(F)cc1 [CBK289326] | 89.1
19 | O=C(O)CC1(CC(=O)N2CC[C@H]3NC(=O)N(c4ccc(F)cc4)C(=O)[C@H]32)CCCC1 [CBK289327] | 97.7
20 | COc1ccc(-c2ccc3c(c2)C(=O)N2CC[C@H](NC(=O)C4CCCC4)[C@H]2C(=O)N3)cc1 [CBK289330] | 108
21 | COc1ccc(-c2ccc3c(c2)C(=O)N2CC[C@H](NC(=O)CCC(=O)O)[C@H]2C(=O)N3)cc1 [CBK289331] | 84.4
22 | O=C(N[C@H]1CCN2C(=O)c3ccccc3NC(=O)[C@H]12)c1cccc(F)c1 [CBK289332] | 89.3
23 | CC(C)NC(=O)N[C@H]1CCN2C(=O)c3cc(-c4ccccc4F)ccc3NC(=O)[C@H]12 [CBK289335] | 84.2
24 | O=C1Nc2ccc(-c3ccsc3)cc2C(=O)N2CC[C@H](NC(=O)N3CCOCC3)[C@@H]12 [CBK289338] | 109
25 | CC(C)NC(=O)N[C@H]1CCN2C(=O)c3ccc(Cl)cc3NC(=O)[C@H]12 [CBK289343] | 99.5

Row | Compound | viability at 28.5 h, 10 µM [%]
26 | N[C@H]1CCN2C(=O)c3cc(-c4ccc(F)cc4F)ccc3NC(=O)[C@H]12 [CBK289345] | 94.4
27 | Cc1cccc(-c2ccc3c(c2)C(=O)N2CC[C@H](NC(=O)N4CCOCC4)[C@H]2C(=O)N3)c1C [CBK289347] | 88.1
28 | CC(C)NC(=O)N[C@H]1CCN2C(=O)c3cc(-c4ccccc4)ccc3NC(=O)[C@H]12 [CBK289351] | 84.1
29 | O=C(N[C@H]1C[C@H]2C(=O)Nc3ccccc3C(=O)N2C1)c1cccnc1 [CBK289356] | 110
30 | COCC(=O)N[C@H]1C[C@H]2C(=O)Nc3ccc(Br)cc3C(=O)N2C1 [CBK289357] | 97.6
31 | COCC(=O)N[C@H]1C[C@H]2C(=O)Nc3ccc(-c4cccs4)cc3C(=O)N2C1 [CBK289358] | 110
32 | COc1ccc(C(=O)N[C@H]2C[C@H]3C(=O)Nc4ccc(-c5ccsc5)cc4C(=O)N3C2)cc1 [CBK289362] | 91.7
33 | CS(=O)(=O)N[C@H]1C[C@H]2C(=O)Nc3cc(Cl)ccc3C(=O)N2C1 [CBK289363] | 89
34 | Cn1cccc1C(=O)N[C@H]1C[C@H]2C(=O)Nc3cc(Cl)ccc3C(=O)N2C1 [CBK289364] | 86.7
35 | C=CCNC(=O)N[C@H]1C[C@H]2C(=O)Nc3cc(Cl)ccc3C(=O)N2C1 [CBK289365] | 92.5
36 | Cn1cccc1C(=O)N[C@H]1C[C@H]2C(=O)Nc3ccc(/C=C/c4ccccc4)cc3C(=O)N2C1 [CBK289367] | 86.7
37 | CS(=O)(=O)N[C@H]1C[C@H]2C(=O)Nc3ccc(-c4ccc(F)cc4F)cc3C(=O)N2C1 [CBK289368] | 85.3
38 | CS(=O)(=O)N1CC[C@H](c2nc3cc(Cl)ccc3o2)C1 [CBK289370] | 86
39 | CC(=O)Nc1ccc(S(=O)(=O)N2CC[C@H](c3nc4ccccc4o3)C2)cc1 [CBK289373] | 103
40 | CC(=O)N1CC[C@H](c2nc3ccc(C#N)cc3[nH]2)C1 [CBK289378] | 108
41 | CCS(=O)(=O)c1ccc2oc([C@H]3CCN(C(=O)C4CCCCC4)C3)nc2c1 [CBK289381] | 104
42 | c1ccc(CN2CC[C@H](c3nc4ncccc4[nH]3)C2)cc1 [CBK289383] | 106
43 | O=C(O)c1ccc(CN2CC[C@H](c3nc4ccccc4o3)C2)cc1 [CBK289387] | 108
44 | c1ccc2oc([C@H]3CCN(C4CCOCC4)C3)nc2c1 [CBK289388] | 92.3
45 | Cc1nnc([C@H]2CCN(Cc3ccccc3)C2)o1 [CBK289390] | 114
46 | Cc1nnc([C@H]2CCN(Cc3cccs3)C2)o1 [CBK289393] | 103
47 | c1cncc(-c2nnc([C@H]3CCNC3)o2)c1 [CBK289396] | 103
48 | Cc1ccc(-c2nnc([C@H]3CCN(Cc4ccc(CO)o4)C3)o2)cc1 [CBK289399] | 90
49 | CCCc1nnc([C@H]2CCN(Cc3ccc(S(C)(=O)=O)cc3)C2)o1 [CBK289402] | 100
50 | CN1CCC(N2CC[C@H](c3nnc(-c4cncn4C)o3)C2)CC1 [CBK289403] | 117

Row | Compound | viability at 28.5 h, 10 µM [%]
51 | CN(C)c1ccc(-c2nnc([C@H]3CCN(C(=O)CCC(=O)O)C3)o2)cc1 [CBK289408] | 119
52 | COc1ccc(-c2nnc([C@H]3CCN(C(=O)C4CC4)C3)o2)cc1 [CBK289409] | 89.6
53 | COCC(=O)N1CC[C@H](c2nnc(-c3ccncc3)o2)C1 [CBK289413] | 88
54 | CN(C)c1ccc(CN2CC[C@H](c3nc4cccc(C(N)=O)c4[nH]3)C2)cc1 [CBK289414] | 105
55 | CC(C)C[C@@H]1N[C@H](C(=O)NCCN(C)C)Cc2c[nH]c3cccc1c23 [CBK289417] | 92.9
56 | CC(C)C[C@@H]1N[C@H](C(=O)NCc2cccnc2)Cc2c[nH]c3cccc1c23 [CBK289418] | 90
57 | COCCN1CCN(C(=O)[C@@H]2Cc3c[nH]c4cccc(c34)[C@H](CC(C)C)N2)CC1 [CBK289419] | 84.5
58 | Cc1cc(CNC(=O)[C@@H]2Cc3cn(C)c4cccc(c34)[C@H](CC(C)C)N2)no1 [CBK289420] | 104
59 | CC(C)C[C@@H]1N[C@H](C(=O)N2CCN(c3ncccn3)CC2)Cc2cn(C)c3cccc1c23 [CBK289421] | 84.2
60 | C#CCNC(=O)[C@@H]1Cc2cn(Cc3nccn3C)c3cccc(c23)[C@H](CC(C)C)N1 [CBK289424] | 108
61 | C#CCNC(=O)[C@@H]1Cc2cn(Cc3c(C)noc3C)c3cccc(c23)[C@H](CC(C)C)N1 [CBK289425] | 93.7
62 | COc1ccc(-c2cc(CC3(NC(C)=O)COC3)no2)cc1 [CBK289428] | 94.5
63 | COCC(=O)Nc1nc2c(s1)C[C@]1(C)CC[C@@H]3[C@H](OC(=O)[C@H]3C)[C@H]1[C@@H]2C [CBK289430] | 105
64 | C[C@@H]1C(=O)O[C@H]2[C@H]1CC[C@@]1(C)Cc3sc(NC(=O)CN(C)C)nc3[C@@H](C)[C@H]21 [CBK289431] | 87.3
65 | Cc1cc(OCC(=O)O)c(C)c2c1CC[C@@H]([C@H](C)C(=O)N1CCC(O)CC1)C2 [CBK289433] | 78.7
66 | CC(=O)N[C@H]1CC[C@]2(C)CCC([C@H](C)C(=O)NCCN3CCOCC3)[C@H](O)[C@H]2[C@@H]1C (stereo partly drawn) [CBK289434] | 114
67 | CC(=O)N[C@H]1CC[C@]2(C)CCC([C@H](C)C(=O)N(C)Cc3ccccc3)[C@H](O)[C@H]2[C@@H]1C (stereo partly drawn) [CBK289435] | 110
68 | CC(=O)N[C@H]1CC[C@]2(C)CCC([C@H](C)C(=O)NC3CC3)[C@H](O)[C@H]2[C@@H]1C (stereo partly drawn) [CBK289437] | 93.9
69 | CC(=O)N[C@H]1CC[C@]2(C)CCC([C@H](C)C(=O)NCCN3CCCC3)[C@H](O)[C@H]2[C@@H]1C (stereo partly drawn) [CBK289440] | 86.5
70 | C[C@H]1[C@@H]2[C@@H](O)C([C@H](C)C(=O)NC3CC3)CC[C@@]2(C)CC[C@@H]1NC(=O)C1CC1 (stereo partly drawn) [CBK289442] | 87.1
71 | CC(C)NC(=O)[C@@H](C)C1CC[C@@]2(C)CC[C@H](NC(=O)C3CC3)[C@@H](C)[C@@H]2[C@H]1O (stereo partly drawn) [CBK289444] | 85
72 | C[C@H]1[C@@H]2[C@@H](O)C([C@H](C)C(=O)N3CCCCC3)CC[C@@]2(C)CC[C@@H]1NC(=O)C1CC1 (stereo partly drawn) [CBK289446] | 106
73 | C[C@H]1[C@@H]2[C@@H](O)C([C@H](C)C(=O)N3CCCC3)CC[C@@]2(C)CC[C@@H]1NC(=O)C1CC1 (stereo partly drawn) [CBK289447] | 85
74 | C[C@H]1[C@@H]2[C@@H](O)C([C@H](C)C(=O)N3CCCCC3)CC[C@@]2(C)CC[C@@H]1NC(=O)c1cnccn1 (stereo partly drawn) [CBK289448] | 111
75 | CC(C)NC(=O)[C@@H](C)C1CC[C@@]2(C)CC[C@H](NC(=O)c3ccncc3)[C@@H](C)[C@@H]2[C@H]1O (stereo partly drawn) [CBK289449] | 89.1
